Source: paper PMC8605905 (Oxidative Medicine and Cellular Longevity, 2021)

Experiments:
[1] = test system: CRE-GFP 293 cells; test: CRE-GFP 293 reporter cell assay (flow cytometry); assay type: cell-based, Human; details: 10 μM, 5 h, in the presence of Ca2+ ionophore (2 μM)
Text: Using the pCRE-MetLuc2-Reporter plasmid (Clontech, Mountain View, CA, USA) as a template, the DNA fragment containing the cAMP response element (CRE) motifs and TATA-like promoter (PTAL) flanked by MluI and AgeI restriction sites was amplified by PCR using sense ([…], MluI site underlined) and antisense ([…], AgeI site underlined) primers. The amplified CRE-PTAL promoter fragment was cloned into pGEM-T Easy (Promega, Madison, WI, USA) and sequenced. The CRE-PTAL-containing MluI/AgeI fragment and GFP-containing AgeI/NotI fragment (from pEGFP-N1; Clontech) were subcloned into MluI- and NotI-digested pcDNA5/FRT/TO (Novagen, Madison, WI, USA). The resulting construct with CRE-PTAL-driving GFP was used to establish 293 GFP reporter cells by targeting insertion into Flp-In-293 cells according to the supplier's instructions (Invitrogen). The cells were grown in a medium containing 5 μg/ml blasticidin and 100 μg/ml hygromycin.
On day 1, CRE-GFP 293 cells were seeded into 48-well plates (5 × 10^4/well). After 24 h, cells were treated with Ca^2+ ionophore (2 μM) (Sigma-Aldrich) for 0–24 h. Cell viability was measured using 3,(4,5-dimethylthiazol-2-yl)-2,5-diphenyltetrazolium bromide (MTT) assay (Sigma-Aldrich). The absorbance of the insoluble purple formazan dye was quantified at 570 nm on a μQuant microplate spectrophotometer (Bio-Tek). In addition, the cells were treated with the Ca^2+ ionophore A23187 (0.5–10 μM) (Sigma-Aldrich) for 5 h, followed by analysis of GFP fluorescence by flow cytometry (Becton–Dickinson, Franklin Lakes, NJ, USA) with excitation/emission wavelengths at 488/507 nm. To monitor CREB activation, cells were treated with forskolin or coumarin-chalcone derivatives (5–10 μM) in the presence or absence of Ca^2+ ionophore (2 μM) for 5 h, and GFP fluorescence was analysed.
To monitor the cAMP-mediated signal transduction pathway, CRE-GFP 293 cells in 6-well plates (1 × 10^6/well) were pretreated with kinase inhibitor H-89 (LC Laboratories, Woburn, MA, USA), KN-62 (Cayman Chemical, Ann Arbor, MI, USA), U0126 (LC Laboratories), or wortmannin (LC Laboratories) (10 μM) for 4 h before forskolin or LM-021 (10 μM) addition for 5 h. GFP fluorescence/protein and total/phosphorylated PKA, CaMKII, ERK, PI3K, and CREB levels were examined. In addition, Aβ-GFP or ∆K280 tauRD-DsRed SH-SY5Y cells were treated with retinoic acid (10 μM) on day 1, followed by the addition of LM-021 (5 or 10 μM) and doxycycline (5 or 2 μg/ml) on day 2, as described. Kinase inhibitors (10 μM) were added on day 6. On day 8, the cells were collected for protein expression analysis of BDNF, BCL2 (BCL2 apoptosis regulator), and BAX (BCL2 associated X, apoptosis regulator), and total/phosphorylated PKA, CaMKII, ERK, PI3K, and CREB. Also, cells were stained with DAPI and assessed for neurite outgrowth as described above.

[2] = DPPH radical-scavenging assay; details: compounds 10–160 μM, 100 μM DPPH, 30 min, n = 3
Procedure: Stable free radical 1,1-diphenyl-2-picrylhydrazyl (DPPH) (Sigma-Aldrich) was applied to test the potential radical-scavenging activity of the coumarin-chalcone derivatives. In brief, the compounds (10–160 μM) were added to an ethanol solution containing 100 μM DPPH. The mixture was vortexed for 15 sec, left to stand for 30 min at room temperature, and scavenging capacity was measured at a wavelength of 517 nm using a Multiskan GO microplate spectrophotometer (Thermo Fisher Scientific, Waltham, MA, USA).

Row | SMILES | CRE-motif-driven GFP expression [1] | CRE-motif-driven GFP expression ([1]; listed as forskolin) | EC50 [2]
1 | C=C[C@@]1(C)CC(=O)[C@]2(O)[C@@]3(C)[C@@H](O)CCC(C)(C)[C@@H]3[C@H](O)[C@H](OC(C)=O)[C@@]2(C)O1 [Forskolin, forskolin] | significantly increased | significantly activated | –
2 | O=c1c(O)c(-c2ccc(O)cc2)oc2cc(O)cc(O)c12 [Kaempferol, kaempferol, reference compound] | – | – | 28 µM
